Measured values from patent publication US20040143007A1, “Malononitrile compounds and their use as pesticides” (priority 2001, published 2004).

How the values were obtained:
Assay type in all cases: in vivo
[1] = system: Culex pipiens pallens (common mosquito); test: Pesticidal test against Culex pipiens pallens, larvae in treated water (Test Example 7); details: 24 h, 0.7 ml of 500 ppm test liquid in 100 ml water (active ingredient 3.5 ppm), twenty final-instar larvae, after 1 days
Experimental: In 100 ml of ion-exchanged water, the test liquid had been prepared as described above, was added dropwise in an amount of 0.7 ml (the concentration of active ingredient was 3.5 ppm). Twenty final-instar larvae of Culex pipiens pallens (common mosquito) were set free in the solution. After 1 days, their survival was examined to determine the mortality.

[2] = system: Musca domestics (house fly); test: Pesticidal test against Musca domestics, treated filter paper with sucrose bait (Test Example 5); details: active ingredient 500 ppm, 0.7 ml on filter paper, ten female adults, after 24 hours
Experimental: Ten female adults of Musca domestics (house fly) were set free in the polyethylene cup, which was then kept covered. After 24 hours, their survival was examined to determine the mortality.

[3] = system: Blattalla germanica (German cockroach); test: Pesticidal test against Blattalla germanica, treated filter paper with sucrose bait (Test Example 6); details: Blattella germanica, 144 h; active ingredient 500 ppm, 0.7 ml on filter paper; two male adults; after 6 days
From the text: Two male adults of Blattalla germanica (German cockroach) were set free in the polyethylene cup, which was then kept covered. After 6 days, their survival was examined to determine the mortality.

[4] = system: Diabrotica undecimpunctata (southern corn rootworm); test: Pesticidal test against Diabrotica undecimpunctata, filter paper with corn seed and eggs (Test Example 4); details: active ingredient 50 ppm, 1 ml on filter paper, 30 to 50 eggs, 25° C.
Experimental: One germinated seed of corn and 30 to 50 eggs of Diabrotica undecimpunctata (southern corn rootworm) was placed on the filter paper in the polyethylene cup, which was then kept covered and left in a room at 25° C. On the 6th day after, the number of surviving larvae of Diabrotica undecimpunctata was examined.

SMILES	mortality at 3.5 µg/mL [1] [%]	mortality at 500 ppm [2] [%]	mortality at 500 ppm [3] [%]	number of surviving pests on the 6th day after [4]
N#Cc1ccc(CC(C#N)(C#N)CC2CC2(Cl)Cl)cc1 (stereo not drawn) [Compound 9, 2-(4-cyanobenzyl)-2-((2,2-dichlorocyclopropyl)methyl)malononitrile]	100	–	–	–
N#CC(C#N)(Cc1ccc(C(F)(F)F)cc1)CC1CC1 [Compound 6, 2-(cyclopropylmethyl)-2-(4-(trifluoromethyl)benzyl)malononitrile]	100	100	100	–
N#CC(C#N)(Cc1ccc(SC(F)(F)F)cc1)CC1CCC1 [Compound 4, 2-(cyclobutylmethyl)-2-(4-(trifluoromethylthio)benzyl)malononitrile]	100	100	100	–
N#CC(C#N)(Cc1ccc(Cl)cc1)CC1CC1 [Compound 1, 2-(4-chlorobenzyl)-2-(cyclopropylmethyl)malononitrile]	100	–	100	0
N#CC(C#N)(Cc1ccc(C(F)(F)F)cc1)CC1CCC1 [Compound 7, 2-(cyclobutylmethyl)-2-(4-(trifluoromethyl)benzyl)malononitrile]	100	100	100	–
N#CC(C#N)(Cc1ccc(OC(F)(F)F)cc1)CC1CC1(Cl)Cl (stereo not drawn) [Compound 5, 2-((2,2-dichlorocyclopropyl)methyl)-2-(4-(trifluoromethoxy)benzyl)malononitrile]	100	100	–	–
N#CC(C#N)(Cc1ccc(C(F)(F)F)cc1)CC1CC1(Cl)Cl (stereo not drawn) [Compound 10, 2-((2,2-dichlorocyclopropyl)methyl)-2-(4-(trifluoromethyl)benzyl)malononitrile]	100	100	100	–
N#CC(C#N)(Cc1ccc(OC(F)(F)F)cc1)CC1CCC1 [Compound 3, 2-(cyclobutylmethyl)-2-(4-(trifluoromethoxy)benzyl)malononitrile]	100	100	–	–
N#CC(C#N)(Cc1ccc(OC(F)(F)F)cc1)CC1CC1 [Compound 2, 2-(cyclopropylmethyl)-2-(4-(trifluoromethoxy)benzyl)malononitrile]	100	100	100	0
